Source: patent US5637617A, “Methods for use of GABAa receptor GABAergic compounds” (The Regents of the University of California, priority 1994, dated 1997)

Test system: phosphoinositide/Ca2+ pathway
Test: Direct membrane current responses of oocytes to fenamates
Format: cell-based, Xenopus laevis
Details: 10-100 μM; in some oocytes

Cc1ccc(Cl)c(Nc2ccccc2C(=O)O)c1Cl [Meclofenamate, Meclofenamic acid]
direct membrane current responses: able to elicit membrane current responses

Cc1cccc(Nc2ccccc2C(=O)O)c1C [Mefenamic acid]
direct membrane current responses: able to elicit membrane current responses
